Results: PubChem BioAssay (NCI)
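Exposure lasted 48 hours, with cells grown in 96-well plates and compounds tested at five concentrations. GI50: concentration for 50% inhibition of growth. The concentration for full growth arrest is given as TGI.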

Tests used:
Experiment in all cases: NCI anticancer screen, dose series, 48 h
[1] = tested on: A498 renal
[2] = tested on: HCC-2998 colon
[3] = tested on: OVCAR-4 ovarian
[4] = tested on: DU-145 prostate
[5] = tested on: SN12C renal
[6] = tested on: PC-3 prostate
[7] = tested on: RPMI-8226 leukemia
[8] = tested on: SNB-19 CNS
[9] = tested on: SK-MEL-28 melanoma
[10] = tested on: NCI-H23 lung

Row | SMILES | GI50 [1] | TGI [1] | GI50 [2] | TGI [2] | GI50 [3] | TGI [3] | GI50 [4] | TGI [4] | GI50 [5] | TGI [5] | GI50 [6] | TGI [6] | GI50 [7] | TGI [7] | GI50 [8] | TGI [8] | GI50 [9] | TGI [9] | GI50 [10] | TGI [10]
1 | COc1ccccc1/C=C1\COc2ccc(-c3ccccc3)cc2C1=O | 2.53 µM | 6.43 µM | 2.63 µM | 6.92 µM | 3.74 µM | > 100 µM | 2.53 µM | 6.63 µM | 3.17 µM | > 100 µM | 4.28 µM | > 100 µM | 2.83 µM | > 100 µM | 4.2 µM | > 100 µM | 3.61 µM | 13.3 µM | 4.38 µM | 59.3 µM
2 | C=C1C(=O)O[C@H]2[C@H]1CC/C(COC(=O)CCCCCC(=O)OC/C1=C/CC[C@@]3(C)O[C@H]3[C@H]3OC(=O)C(=C)[C@@H]3CC1)=C\CC[C@@]1(C)O[C@@H]21 | 11.4 µM | 27.4 µM | 1.95 µM | 3.98 µM | 2.92 µM | 15.3 µM | 3.19 µM | 12.1 µM | 2.86 µM | 11.5 µM | 2.24 µM | 5.96 µM | 1.69 µM | 5.51 µM | 4.09 µM | 19.5 µM | 2.45 µM | 6.84 µM | 2.72 µM | 9.98 µM
3 | CCCCNNC(=O)c1ccc(Br)cc1 | 0.364 µM | 3.41 µM | 4.35 µM | 24 µM | 4.79 µM | > 50 µM | 2.6 µM | > 50 µM | 15.4 µM | > 50 µM | 4.12 µM | > 50 µM | 0.956 µM | > 50 µM | 11.2 µM | > 50 µM | 1.55 µM | > 35.3 µM | 6.77 µM | > 50 µM
4 | Cc1ccc(/C=C/c2c(C(=O)/C=C/c3ccccc3)c(C)nc3ccccc23)cc1 | 1.75 µM | 3.23 µM | 1.71 µM | 3.35 µM | 2.19 µM | 7.72 µM | 1.65 µM | 3.15 µM | 1.87 µM | 3.85 µM | 1.84 µM | 5.05 µM | 1.54 µM | 5.13 µM | 1.66 µM | 3.08 µM | 1.77 µM | 3.27 µM | 1.64 µM | 3.78 µM
5 | COc1ccc([C@H](CC(=O)O)N2CCN(CCCc3ccc4c(n3)NCCC4)C2=O)cn1 | 0.0116 µM | 0.0633 µM | > 100 µM | > 100 µM | > 100 µM | > 100 µM | 0.951 µM | 12.5 µM | 0.515 µM | – | > 100 µM | > 100 µM | > 100 µM | > 100 µM | 0.426 µM | > 100 µM | > 28.7 µM | > 100 µM | 0.892 µM | 4.07 µM
6 | CN(C)C(=O)Nc1nc2cc(Cl)c(Cl)cc2[nH]1 | 0.487 µM | – | 2.5 µM | > 47.1 µM | 1.61 µM | > 100 µM | 2.02 µM | 24.9 µM | 1.36 µM | > 100 µM | 0.566 µM | > 51.8 µM | 1.37 µM | > 100 µM | 11.6 µM | > 100 µM | 8.63 µM | > 100 µM | 2.07 µM | > 66.5 µM
